Experimental findings from PMC8001506 (Marine Drugs, 2021) are described below.

What all share (assay): cell-based
One assay addresses rat α7 nAChR (Rattus norvegicus, UniProt Q05941). Type of assay: cell-based.
The next assay concerns the target human α9α10 nAChR (Homo sapiens, UniProt Q9GZZ6+Q9UGM1). Type of assay: cell-based.
For another assay, the target named is rat α3β2 nAChR (Rattus norvegicus, UniProt P04757+P12390).
A further assay concerns the target rat α4β4 nAChR (Rattus norvegicus, UniProt P09483+P12392). It is filed as cell-based.
For a further assay, the target named is rat α4β2 nAChR (Rattus norvegicus, UniProt P09483+P12390). It is filed as cell-based.
Another assay has as its target rat α3β4 nAChR (Rattus norvegicus, UniProt P04757+P12392). Type of assay: cell-based.
A further assay deals with rat α6/α3β2β3 nAChR (Rattus norvegicus, UniProt P04757+P12390+P12391+P43143).
The target in another assay is rat α2β4 nAChR (Rattus norvegicus, UniProt P12389+P12392). Type of assay: cell-based.
The next assay addresses rat α2β2 nAChR (Rattus norvegicus, UniProt P12389+P12390). It is filed as cell-based.

Where a SMILES comes first, the peptide text is derived from it. Bridges are numbered along the chain shown (N, C = ends).

Chain of rat α3β4 nAChR (P04757 26-499 limits assumed): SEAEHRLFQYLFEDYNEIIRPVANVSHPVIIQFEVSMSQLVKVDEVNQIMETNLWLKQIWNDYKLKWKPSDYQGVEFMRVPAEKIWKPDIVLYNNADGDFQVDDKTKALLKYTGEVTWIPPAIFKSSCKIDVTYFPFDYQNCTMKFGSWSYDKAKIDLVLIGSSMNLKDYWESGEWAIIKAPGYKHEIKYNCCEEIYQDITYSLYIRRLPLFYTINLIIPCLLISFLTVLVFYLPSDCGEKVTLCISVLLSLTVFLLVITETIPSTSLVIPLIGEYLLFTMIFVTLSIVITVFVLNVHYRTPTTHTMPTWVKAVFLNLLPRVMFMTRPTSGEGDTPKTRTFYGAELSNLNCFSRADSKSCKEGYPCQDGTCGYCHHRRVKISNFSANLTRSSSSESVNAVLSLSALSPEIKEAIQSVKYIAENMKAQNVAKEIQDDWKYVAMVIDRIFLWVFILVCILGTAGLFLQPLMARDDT
Chain of rat α3β4 nAChR (P12392 21-495 limits assumed): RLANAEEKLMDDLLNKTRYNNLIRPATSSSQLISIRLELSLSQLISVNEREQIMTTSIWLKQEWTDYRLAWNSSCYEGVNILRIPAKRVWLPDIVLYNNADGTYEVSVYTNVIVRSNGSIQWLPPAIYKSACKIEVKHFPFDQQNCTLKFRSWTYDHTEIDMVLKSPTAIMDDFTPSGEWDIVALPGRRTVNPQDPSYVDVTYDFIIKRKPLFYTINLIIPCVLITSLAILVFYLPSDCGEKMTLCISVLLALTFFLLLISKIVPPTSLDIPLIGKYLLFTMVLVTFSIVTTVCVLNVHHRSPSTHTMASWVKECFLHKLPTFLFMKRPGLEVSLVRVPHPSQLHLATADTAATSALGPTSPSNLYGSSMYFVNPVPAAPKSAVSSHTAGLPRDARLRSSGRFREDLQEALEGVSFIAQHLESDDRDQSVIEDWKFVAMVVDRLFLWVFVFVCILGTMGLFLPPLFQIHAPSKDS
Chain of rat α3β2 nAChR (P04757 26-499 limits assumed): as the sequence (P04757 26-499 limits assumed) above
Chain of rat α3β2 nAChR (P12390 25-500 limits assumed): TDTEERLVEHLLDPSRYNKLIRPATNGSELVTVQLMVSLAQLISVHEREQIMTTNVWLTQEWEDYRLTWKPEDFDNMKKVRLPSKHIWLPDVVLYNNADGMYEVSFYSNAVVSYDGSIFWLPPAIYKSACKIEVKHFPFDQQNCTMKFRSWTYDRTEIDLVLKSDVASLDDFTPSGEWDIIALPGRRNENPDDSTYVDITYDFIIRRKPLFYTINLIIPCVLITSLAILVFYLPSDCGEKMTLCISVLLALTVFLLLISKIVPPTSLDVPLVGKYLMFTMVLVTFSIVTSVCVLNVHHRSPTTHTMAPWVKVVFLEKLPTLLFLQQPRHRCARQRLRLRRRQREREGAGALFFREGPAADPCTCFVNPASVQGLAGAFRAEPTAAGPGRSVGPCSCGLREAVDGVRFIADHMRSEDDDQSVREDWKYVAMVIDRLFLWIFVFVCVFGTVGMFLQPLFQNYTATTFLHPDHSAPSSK
Chain of rat α2β2 nAChR (P12389 28-511 limits assumed): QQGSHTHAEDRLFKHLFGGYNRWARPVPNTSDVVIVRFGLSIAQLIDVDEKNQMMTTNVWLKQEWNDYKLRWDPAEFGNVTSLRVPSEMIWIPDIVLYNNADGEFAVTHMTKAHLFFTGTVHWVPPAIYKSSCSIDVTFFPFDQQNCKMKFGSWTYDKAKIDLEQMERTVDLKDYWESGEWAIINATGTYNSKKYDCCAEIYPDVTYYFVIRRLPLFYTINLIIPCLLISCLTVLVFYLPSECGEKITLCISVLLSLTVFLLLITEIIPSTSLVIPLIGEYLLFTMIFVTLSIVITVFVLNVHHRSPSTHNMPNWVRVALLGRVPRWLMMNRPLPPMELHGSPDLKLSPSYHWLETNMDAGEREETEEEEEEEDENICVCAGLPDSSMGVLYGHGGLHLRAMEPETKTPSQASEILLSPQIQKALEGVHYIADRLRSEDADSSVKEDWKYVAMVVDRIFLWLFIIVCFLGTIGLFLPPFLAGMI
Chain of rat α2β2 nAChR (P12390 25-500 limits assumed): as the sequence (P12390 25-500 limits assumed) above
Chain of rat α2β4 nAChR (P12389 28-511 limits assumed): as the sequence (P12389 28-511 limits assumed) above
Chain of rat α2β4 nAChR (P12392 21-495 limits assumed): as the sequence (P12392 21-495 limits assumed) above
Chain of rat α4β2 nAChR (P09483 31-630 limits assumed): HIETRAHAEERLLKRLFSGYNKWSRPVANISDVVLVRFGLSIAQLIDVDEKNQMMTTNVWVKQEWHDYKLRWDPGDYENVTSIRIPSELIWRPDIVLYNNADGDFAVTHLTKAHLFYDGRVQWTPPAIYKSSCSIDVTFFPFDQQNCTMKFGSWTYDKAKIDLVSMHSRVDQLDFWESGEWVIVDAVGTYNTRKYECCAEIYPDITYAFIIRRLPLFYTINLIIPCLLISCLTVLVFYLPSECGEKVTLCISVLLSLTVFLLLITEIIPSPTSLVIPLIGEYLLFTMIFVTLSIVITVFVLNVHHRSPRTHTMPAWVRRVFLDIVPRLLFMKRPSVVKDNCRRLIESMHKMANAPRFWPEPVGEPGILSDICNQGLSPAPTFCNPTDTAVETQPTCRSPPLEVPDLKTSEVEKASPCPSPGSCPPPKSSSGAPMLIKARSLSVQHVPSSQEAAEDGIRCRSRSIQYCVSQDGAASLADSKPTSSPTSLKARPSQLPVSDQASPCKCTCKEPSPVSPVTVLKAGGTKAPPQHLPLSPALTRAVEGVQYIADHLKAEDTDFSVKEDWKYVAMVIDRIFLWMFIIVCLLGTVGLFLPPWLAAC
Chain of rat α4β2 nAChR (P12390 25-500 limits assumed): as the sequence (P12390 25-500 limits assumed) above
Chain of rat α4β4 nAChR (P09483 31-630 limits assumed): as the sequence (P09483 31-630 limits assumed) above
Chain of rat α4β4 nAChR (P12392 21-495 limits assumed): as the sequence (P12392 21-495 limits assumed) above
Chain of rat α7 nAChR (Q05941 23-502 limits assumed): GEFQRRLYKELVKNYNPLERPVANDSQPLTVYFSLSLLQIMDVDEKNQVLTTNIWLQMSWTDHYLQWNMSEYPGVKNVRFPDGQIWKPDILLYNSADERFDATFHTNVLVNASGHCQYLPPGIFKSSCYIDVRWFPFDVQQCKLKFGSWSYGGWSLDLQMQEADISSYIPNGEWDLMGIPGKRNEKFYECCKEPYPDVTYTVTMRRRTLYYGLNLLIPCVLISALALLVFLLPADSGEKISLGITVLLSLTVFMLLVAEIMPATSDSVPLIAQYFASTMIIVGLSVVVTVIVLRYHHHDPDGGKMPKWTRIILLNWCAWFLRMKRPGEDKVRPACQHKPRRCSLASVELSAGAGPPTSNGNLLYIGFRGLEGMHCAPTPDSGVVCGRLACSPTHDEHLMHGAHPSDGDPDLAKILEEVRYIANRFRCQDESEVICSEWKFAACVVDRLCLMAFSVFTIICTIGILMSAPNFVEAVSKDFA
Chain of human α9α10 nAChR (Q9UGM1 26-479 limits assumed): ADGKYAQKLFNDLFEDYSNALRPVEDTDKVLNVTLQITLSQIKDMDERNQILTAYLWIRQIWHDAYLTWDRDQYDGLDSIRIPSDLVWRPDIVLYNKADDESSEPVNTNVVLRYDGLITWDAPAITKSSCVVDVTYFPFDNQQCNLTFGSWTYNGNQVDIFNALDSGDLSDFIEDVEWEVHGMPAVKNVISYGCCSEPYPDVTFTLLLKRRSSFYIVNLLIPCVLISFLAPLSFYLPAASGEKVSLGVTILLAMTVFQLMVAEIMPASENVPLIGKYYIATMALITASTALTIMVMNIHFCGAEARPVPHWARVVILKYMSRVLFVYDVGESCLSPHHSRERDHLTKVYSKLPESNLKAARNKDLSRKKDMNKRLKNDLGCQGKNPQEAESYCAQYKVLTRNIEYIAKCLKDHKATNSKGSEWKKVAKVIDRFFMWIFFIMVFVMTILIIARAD
Chain of human α9α10 nAChR (Q9GZZ6 25-450 limits assumed): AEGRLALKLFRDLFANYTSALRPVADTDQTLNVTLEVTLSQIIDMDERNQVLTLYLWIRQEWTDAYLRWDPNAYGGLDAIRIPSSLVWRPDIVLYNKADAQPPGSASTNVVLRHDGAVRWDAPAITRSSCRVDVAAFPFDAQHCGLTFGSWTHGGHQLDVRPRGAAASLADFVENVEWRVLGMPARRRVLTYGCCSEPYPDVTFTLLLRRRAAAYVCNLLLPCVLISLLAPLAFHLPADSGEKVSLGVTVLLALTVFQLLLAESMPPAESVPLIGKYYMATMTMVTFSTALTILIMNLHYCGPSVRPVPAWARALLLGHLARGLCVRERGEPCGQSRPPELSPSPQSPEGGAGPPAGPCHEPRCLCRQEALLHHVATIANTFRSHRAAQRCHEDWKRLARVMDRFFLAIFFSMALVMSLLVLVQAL

As to `CC(C)C[C@@H]1NC(=O)[C@H](CC(=O)O)NC(=O)[C@H](CO)NC(=O)[C@H](Cc2c[nH]cn2)NC(=O)[C@H](CCC(N)=O)NC(=O)[C@H](C(C)C)NC(=O)[C@H](CCC(N)=O)NC(=O)[C@@H]2CSSC[C@H](NC(=O)[C@@H](NC(=O)[C@H](CC(=O)O)NC(=O)[C@H](C)NC(=O)CNC(=O)[C@H](CO)NC(=O)[C@H](C)N)[C@@H](C)O)C(=O)N[C@@H](CSSC[C@@H](C(=O)O)NC1=O)C(=O)N[C@@H](CO)C(=O)N[C@@H](CC(N)=O)C(=O)N1CCC[C@H]1C(=O)N[C@@H](C)C(=O)N2` [CIC] (H-ASGADTCCSNPACQVQHSDLC-OH; disulfide 7-13, 8-21), the half-inhibitory concentration (IC50) (in general, the concentration that gives 50% inhibition) against rat α7 nAChR was more than 10 µM; at human α9α10 nAChR, more than 10 µM; at rat α3β2 nAChR it was 3.51 µM; at rat α4β4 nAChR, more than 10 µM; at rat α4β2 nAChR it was more than 10 µM; at rat α3β4 nAChR it was more than 10 µM. In addition, the concentration for half-maximal inhibition (IC50) on rat α6/α3β2β3 nAChR was 1.03 µM; against rat α2β4 nAChR, more than 10 µM; at rat α2β2 nAChR, more than 10 µM.
